Results as given in US3994908A, “Substituted acetic acid derivatives and production thereof” (Shionogi & Co., Ltd., priority 1972, dated 1976).

Assays:
erythema = experiment: Anti-erythema activity by the Wilhelmi method, oral; assay type: in vivo; settings: Cavia porcellus, Guinea pig
Excerpt: The anti-erythema activity was observed by the Wilhelmi method
[Wilhelmi,g.,(1949), Schweiz.Med.Wehnschr.,79, 577]. The anti-edema

in vivo = settings: mouse, po
Description: Arch. int. […] The toxicity was tested by the ora
administration of the tested compound to mice.

Compound	ED50 (erythema)	LD50 (in vivo)
CC(C(=O)O)c1ccc(Oc2ccc(Cl)cc2)nc1 (stereo not drawn) [2-(2-p-Chlorophenoxy-5-pyridyl)-propionic acid]	19 mg/kg	1150 mg/kg
CC(=O)Oc1ccccc1C(=O)O [Aspirin, reference compound]	79 mg/kg	2000 mg/kg
CC(C(=O)O)c1ccnc(Oc2ccccc2)c1 (stereo not drawn) [Calcium bis[2-(2-phenoxy-4-pyridyl)-propionate]]	47 mg/kg	2250 mg/kg
CC(C(=O)O)c1ccc(Oc2ccccc2)nc1 (stereo not drawn) [Calcium bis[2-(2-phenoxy-5-pyridyl)-propionate]]	21 mg/kg	1640 mg/kg
CCCCC1C(=O)N(c2ccccc2)N(c2ccccc2)C1=O [Phenylbutazone, reference compound]	26 mg/kg	–
